The source of these data is patent US9546129B2, “DTPA prodrugs, compositions thereof, and methods of using the same” (priority 2012, dated 2017).

In data set [1] the test system is ^241Am contaminated rats. In words: Once vs twice daily dosing ^241Am decorporation study in rats. It is filed as in vivo, Sprague Dawley rat. Particulars: Zn-DTPA 13.3 mg/kg intravenous daily x5, male rats, seven days after IM ^241Am. As for the experimental part: The animal study was conducted according to a protocol approved by The University of North Carolina at Chapel Hill Institutional Animal Care and Use Committee. Sixteen male Sprague Dawley rats were contaminated with ^241Am(NO3)3 (0.25 μCi) by intramuscular injection (0.1 mL, 0.1 M HNO3) into the right hind leg, under isoflurane anesthesia. Immediately after injection, body weights were recorded (Day 0 weight) and animals placed in individual metabolic cages. The 16 rats were assigned to four groups; untreated control, 5 daily oral gavage doses of 600 mg/kg C2E2 once daily, 5 days of oral gavage treatment of 300 mg/kg C2E2 twice daily or 5 daily intravenous doses of Zn-DTPA solution (13.3 mg/kg) via a jugular vein catheter. The C2E2 was from Lot 050 obtained using Method 2. The C2E2 dosing solution utilized was a 10% w/w solution in water. […] Excreted urine and feces were collected at 2, 4, 8, 10, 12, 14, 18, 20 and 24 hours after the first dose and daily for the remainder of the study. The samples were transferred to 20 mL scintillation vials, weighed and placed in a gamma counter (Wizard2 2480, Perkin Elmer) for detection of ^241Am gamma activity. In addition, following necropsy, selected tissues were removed, weighed and placed in a gamma counter (Wizard2 2480, Perkin Elmer) for detection of ^241Am gamma activity. The total amount of ^241Am administered to the animals was determined by quantifying the 59.7 keV photons emitted by ^241Am in duplicate aliquots (100 μL) of the injection solution using a gamma counter (wizard series, Perkin-Elmer). A counting window from 40-80 keV and a 60-second counting time were used for acquisition and each reading was corrected for background at acquisition. All experimental tissues and samples were counted using the same gamma counter and protocol. For all the samples, ^241Am content was expressed as a percentage of the initial dose. The femur from the leg opposite to the injection site was scaled by a factor of 20 to estimate total skeletal ^241Am burden.

The conditions of data set [2]: comparison values; cited from earlier work.
The nature of data set [3]: Protonation constants by potentiometric titration. The conditions noted are these: 5 mM ligand in 0.15 M KCl. It is filed as physicochemical. The procedure: The protonation constants for C2E2 were determined by preparing a 5 mM solution of free ligand in 0.15 M KCl. The constants were calculated from three replicates, with each experiment consisting of a titration with acid, followed by a titration with base. After each addition of titrant, a 30 second equilibration time passed before pH measurement with a Seven Easy pH meter and (Ag/AgCl reference) glass electrode (Metler Tolledo). At the end of the titrations, the presence of C2E2 was confirmed by HPLC-CAD. Evaluation of the titration curve for C2E2 (FIG. 31) identified 6 pKa values that correspond with the three tertiary amines and three carboxylic acids. The values were determined by refinement using […] software. The pKa values determined for C2E2 are consistent with DTPA analogues previously investigated for use as MRI contrast agents with two carboxylic acids are functionalized such as DTPA-BMA and DTPA-BBA (Rizkalla, E. N., et al., Inorganic Chemistry, 32, 582-586, (1993) and Geraldes C. F., et al., Journal of the Chemical Society-Dalton Transactions, 327-335 (1995)).

Data set [4] deals with ^241Am contaminated rats. In words: C2E2 single dose ^241Am decorporation in rats (IM contamination). It is filed as in vivo, Sprague Dawley rat. Particulars: DTPA 14 mg/kg IV, ad lib; single dose 24 h after IM ^241Am, 7 days, female rats. As for the experimental part: This study was to assess the efficacy of a single oral gavage dose of C2E2 in ^241Am contaminated rats. A 200 μL aliquot was withdrawn from a stock solution of ^241Am nitrate (0.1 mCi in 5 mL 1 M HNO3), evaporated to dryness, dissolved in concentrated HNO3 (15 M, 5 mL) then evaporated to dryness and dissolved in dilute HNO3 (0.1 M, 8 mL) to form the injection solution. Groups of 4 female Sprague-Dawley rats were contaminated with 250 nCi of ^241Am nitrate by IM injection ([…]) then were administered single doses of C2E2 by gavage at 200, 600, or 1000 mg/kg under ad lib feeding conditions utilizing a 10% w/w solution in sterile water (dose volumes were 2, 6, and 10 mL/kg, for the 200, 600, and 1000 mg/kg doses, respectively). For the fasted component of the study, the animals were fasted 24 hours before treatment then for 2 hours post drug administration. Control groups with ad lib access to food and water were either untreated or administered an IV dose of the calcium salt of DTPA (Ca-DTPA) at 14 mg/kg (target dose volume of 0.7 mL/kg and concentration of 20 mg/mL). Treatment was administered 1 day after contamination. All animals were euthanized 7 days after contamination and the following tissues were collected: liver, both kidneys, both femurs as well as the ipsilateral and the contralateral hind leg muscle tissue and the pelt from the injection site. Urine and feces were collected from the time of contamination through euthanasia. Cage washings were also collected at the end of the study and considered part of total urine collection. Two aliquots (100 μL) of the injection solution were removed and ^241Am gamma activity was determined using radiomatic detection. The average of these standards is the injected dose used for all animals. All tissues and samples were counted in a similar manner. Americium content was expressed as a percentage of the injected dose. Overall recovery of radioactivity across all groups in this study was approximately 90%. […] The primary route by which both DTPA and C2E2 enhanced elimination of ^241Am occurred was by urinary clearance. […] Fecal clearance of ^241Am was not altered by feeding status, an observation that is consistent with the similar liver burden between the two groups at the end of the study. […] As with DTPA, enhanced decorporation by C2E2 occurred through enhanced urinary clearance.
Male and female Sprague Dawley rats (n=4/gender/dose) were administered single oral doses of diethylenetriaminepentaacetic acid diethyl ester (C2E2) by gavage 24 hours after intramuscular contamination with ^241Am(NO3)3 (250 nCi) under ad libitum and fasted conditions. Animals received single oral nominal doses of 200, 600, or 1000 mg/kg C2E2. Untreated animals and animals treated with an intravenous dose of Ca-DTPA ([…]) 24 hours after contamination served as controls; only ad libitum conditions were used for control animals. Total radionuclide decorporation and radionuclide tissue burden were evaluated seven days after contamination.
Male and female Sprague Dawley rats were contaminated with ^241Am(NO3)3 (0.25 μCi) by intramuscular injection (0.1 mL, 0.1 M HNO3) into the right hind leg, under isoflurane anesthesia. Immediately after injection, body weights were recorded (Day 0 weight) and animals were placed in individual metabolic cages.
Approximately eight hours after contamination—and 16 hours before test article administration—rats assigned to the Fasted groups had access to food restricted by removing the food chamber from their metabolic cages and collecting all loose chow from their housing chambers. Food chambers were replaced 1 hour after oral gavage treatment, restoring access to food. At all other times all animals had ad libitum access to food.
Male and female Sprague-Dawley rats assigned to test groups each received a single oral gavage dose of 0, 200, 600, or 1000 mg/kg of C2E2 utilizing a 10% w/w solution in water 24 hours after contamination. […]

Data set [5] can be described thus: Stability study in water (pH and precipitation of solubility samples). It is filed as physicochemical. Particulars: for Precipitation on storage (observation): room temperature, 4° C., −20° C. As for the experimental part:
Method 2 was used to prepare the C2E2 for the dosing formulations. Specifically, Lots 050 and 005-2 were prepared using Method 2, whereas the Reference standard and MTD Lot were prepared using Method 1. For the dosing formulations, de-ionized water (DI water tap in room 18/19) was used with the C2E2 prepared using Method 2. The dosing formulations were compared with C2E2 formulations prepared using Milli-Q water. The pH of each sample was recorded and the values are listed below in Table 2.
In order to re-create the unusual solutions, 1-mL samples of C2E2 (Lots 005-2 and 050; MTD Lot; and Reference std) were made at concentrations of 100 mg/mL in Milli-Q water. A set of samples was stored at room temperature, in the refrigerator (4° C.), and in the −20° C. freezer. […] Storage at 4° C. exacerbates the precipitation of Lot 050. After 8 days, both the Reference Standard and Lot 050 have significant amounts of solid detected at 4° C. and room temperature and crystals have started to form. […] While not wishing to be bound to any particular theory, this is likely because more impurities increase the solubility.

Data set [6] can be described thus: Body weights and clinical observations in the rat single dose decorporation study. Format: in vivo, Sprague Dawley rat. Particulars: iv Ca-DTPA 14 mg/kg, ad libitum; for Mean body weight: in g (unit assumed). From the text: Each rat was weighed at contamination (Day 0) and the terminal body weight (Day 7) was taken at necropsy.
Data set [7] in a line: Polymorph stability (DSC, competitive ripening, storage). Format: physicochemical. Particulars: higher melting point, lower solubility. As for the experimental part: Samples of C2E2 (˜5 mg) were crimped and evaluated by DSC over a range of 25° C. to 320° C. with a heating rate of 10.00° C./min. A sample was also cycled three times from 25 to 150° C. with a heating rate of 10° C./min and a cooling rate of 5° C./min. Both the MTD Lot and the Reference Standard show a melting point near 120° C. Lot 050 has a melting point of about 140° C.
50 mg each of Lot 050 and the Reference standard were combined in 500 μL of water and stirred at room temperature overnight. After stirring, the remaining solid was filtered from the liquid, allowed to dry and analyzed by DSC.

Take `O=C([O-])CN(CCN(CC(=O)[O-])CC(=O)[O-])CCN(CC(=O)[O-])CC(=O)[O-].[Na+].[Na+].[Na+].[Zn+2]` [i.v. Control, reference compound]: the “Total Decorporation” value in the data set with ^241Am contaminated rats [1] is 54.0 ± 3.9 % of injected dose.
With `O=C(O)CN(CCN(CC(=O)O)CC(=O)O)CC(=O)O` [EDTA], in data set [2], the “Stability of the gadolinium complex, log K” value is recorded as 17.0.
In data set [3], `CCOC(=O)CN(CCN(CCN(CC(=O)O)CC(=O)O)CC(=O)O)CC(=O)O` [C2E1] yielded a PKa2 of 2.99 ± 0.05, a pKa1 of 6.35, a pKa3 of 1.72 ± 1.5 and a pKa4 of 1.18 ± 0.45. In data set [3], the pKa5 was under 1.5 and the pKa6 is given as under 1.5.
“diethylenetriamine pentaacetic acid [DTPA]”: the “Stability of the gadolinium complex, log K” value in data set [2] is recorded as 22.5. Further, in the data set on ^241Am contaminated rats [4], the “Cage Wash ^241Am” value came to 3.6 ± 0.8%, the “Feces ^241Am” value is 10.3 ± 1.7%, the Liver burden is on record as 12.3 ± 1.2 % injected and the “Total Decorporation” value is 36.1 ± 4.6 % injected. In the data set on ^241Am contaminated rats [4], the “Urine ^241Am” value worked out at 22.1 ± 2.6%.
Take `CCOC(=O)CN(CCN(CCN(CC(=O)O)CC(=O)OCC)CC(=O)O)CC(=O)O` [Lot 005-2, 6,9-bis(carboxymethyl)-3-(2-ethoxy-2-oxoethyl)-11-oxo-12-oxa-3,6,9-triazatetradecan-1-oic acid]: the “pH of formulations prepared using Milli-Q water” value (from here on “pH … using Milli-Q water”) in data set [5] (100 mg/mL) is 2.54. In data set [5] (100 mg/mL in Milli-Q water), the “Precipitation on storage (observation)” value was “do not come out of solution”.
For `O=C([O-])CN(CCN(CC(=O)[O-])CC(=O)[O-])CCN(CC(=O)[O-])CC(=O)[O-].[Ca+2].[Na+].[Na+].[Na+]` [Ca-DTPA, reference compound], the “Mean Percentage Body Weight Change” value in data set [6] (Female) is listed as −0.1 ± 1.9%; in data set [6] (Male) it was 4.5 ± 6.1%. Besides, the Mean body weight was found to be 273.6 ± 7.7 in data set [6] (female rats, Day 0); 273.3 ± 11.2 in data set [6] (female rats, Day 7 (terminal)); 301.0 ± 4.0 in data set [6] (male rats, Day 0); 314.6 ± 20.4 in data set [6] (male rats, Day 7 (terminal)).
For `CCOC(=O)CN(CCN(CCN(CC(=O)O)CC(=O)OCC)CC(=O)O)CC(=O)O` [MTD Lot, 6,9-bis(carboxymethyl)-3-(2-ethoxy-2-oxoethyl)-11-oxo-12-oxa-3,6,9-triazatetradecan-1-oic acid], in data set [5] (100 mg/mL), the “pH … using Milli-Q water” value worked out at 2.35. Moreover, the “Precipitation on storage (observation)” value in data set [5] (100 mg/mL in Milli-Q water) is given as “do not come out of solution”.
Take `CCOC(=O)CN(CCN(CCN(CC(=O)O)CC(=O)OCC)CC(=O)O)CC(=O)O` [Reference Standard, 6,9-bis(carboxymethyl)-3-(2-ethoxy-2-oxoethyl)-11-oxo-12-oxa-3,6,9-triazatetradecan-1-oic acid]: the “Time at which material starts to precipitate” value in data set [5] (100 mg/mL in Milli-Q water, regardless of storage temperature) was at most 24 h. Also, the “pH … using Milli-Q water” value in data set [5] (100 mg/mL, listed as Purified C2E2 (Reference std)) came to 2.43.
`CCOC(=O)CN(CCN(CCN(CC(=O)O)CC(=O)OCC)CC(=O)O)CC(=O)O` [Lot 050, 6,9-bis(carboxymethyl)-3-(2-ethoxy-2-oxoethyl)-11-oxo-12-oxa-3,6,9-triazatetradecan-1-oic acid]: the figures for the “pH of formulations prepared using de-ionized water” value in data set [5] (20 mg/mL), in data set [5] (60 mg/mL) and in data set [5] (100 mg/mL) were 3.04, 2.93 and 2.93, respectively. Moreover, the “pH … using Milli-Q water” value in data set [5] (100 mg/mL) came out at 2.60. Besides, the “Precipitation on storage (observation)” value in data set [5] (100 mg/mL in Milli-Q water) was “begins to come out of solution after three days”. For the same compound, the “Relative stability of polymorph” value in data set [7] is recorded as “most stable”.
